Measurements published in patent publication US8008487B2, “Substituted thieno[2,3-D]pyrimidines as fungicides” (priority 2004, dated 2011).
Read-outs that look alike come from different tables or passages of the source.

What was measured:
Assay type in all cases: in vivo
[1] = system: Puccinia recondita tritici; experiment: Leaf Rust of Wheat (PUCCRT), whole-plant fungicide test; details: 200 ppm on foliage, one-day protectant test; for pest or weed control at 200 ppm: Puccinia recondita, foliar, 24 h, read-out: PUCCRT percent control of disease
Leptosphaeria nodorum = experiment: Glume Blotch of Wheat (LEPTNO), whole-plant fungicide test; details: Parastagonospora nodorum, read-out: LEPTNO percent control of disease; for pest or weed control at 200 ppm: foliar, 24 h, 200 ppm on foliage, one-day protectant test
Magnaporthe grisea = experiment: whole plant or invertebrate; details: for pest or weed control at 200 ppm: foliar, read-out: PYRIOR percent control of disease, 200 ppm on foliage, rice, one-day protectant test
Colletotricum lagenarium = experiment: Cucumber Anthracnose (COLLLA), whole-plant fungicide test; details: 200 ppm on foliage, one-day protectant test; for pest or weed control at 200 ppm: Cucumis sativus, foliar, 24 h, read-out: COLLLA percent control of disease
Phytophthora infestans = experiment: whole plant or invertebrate; details: for pest or weed control at 200 ppm: Phytophthora infestans, in Solanum lycopersicum, foliar, 24 h, read-out: PHYTIN percent control of disease, 200 ppm on foliage, tomato, one-day protectant test
Septoria tritici = experiment: Speckled Leaf Blotch of Wheat (SEPTTR), whole-plant fungicide test; details: Zymoseptoria tritici, read-out: SEPTTR percent control of disease; for pest or weed control at 75 ppm: 75 ppm (footnote d); for pest or weed control at 200 ppm: foliar, 200 ppm on foliage; for pest or weed control at 100 ppm: 100 ppm (footnote a)
Erysiphe cichoracaerum = experiment: Cucumber Powdery Mildew (ERYSCI), whole-plant fungicide test; details: 200 ppm on foliage, one-day protectant test; for pest or weed control at 200 ppm: Erysiphe, foliar, 24 h, read-out: ERYSCI percent control of disease
Cochliobolus sativus = experiment: Spot Blotch of Wheat (COCHSA), whole-plant fungicide test; details: Bipolaris sorokiniana, foliar, 24 h, 200 ppm on foliage, one-day protectant test, read-out: COCHSA percent control of disease
Procedure: The activity of the compounds as effective fungicides was determined by applying the compounds to plants and observing control of fungal disease. The compounds were formulated at 200 ppm in 10 vol. percent acetone plus 90 vol. percent Triton X water (deionized water 99.99 wt. percent+0.01 wt. percent Triton X100), giving a “formulated test compound.” In a few cases, compounds were formulated at 100, 75 or 8.3 ppm rather than 200 ppm in 10 vol. percent acetone plus 90 vol. percent Triton X water (deionized water 99.99 wt. percent+0.01 wt. percent Triton X100), giving a ‘formulated test compound’. The compounds were tested for ability to control plant diseases in a 1-day protectant test (1DP) or a 2-day curative test (2DC). Formulated test compounds were applied to plants using a turn table sprayer fitted with two opposing air atomization nozzles which delivered approximately 1500 L/ha of spray volume. Plants were inoculated with spores of the fungus the next day (1DP), then incubated in an environment conducive to disease development. In a few cases, the compounds were tested for ability to control plant disease in a two-day curative test. Plants were inoculated with spores of the fungus two days prior to compound application, and incubated in an environment conducive to disease development both before and after compound application (2DC). For all types of tests, disease severity was evaluated 4 to 28 days later, depending on the speed of disease development.
Each pot contained 3-8 seedlings. These plants were sprayed until wet with the formulated test compound. On the following day, the leaves were inoculated with an aqueous spore suspension of Cochliobolus sativus and the plants were kept in high humidity for one to two days to permit spores to germinate and infect the leaf. The plants were then transferred to a greenhouse until disease developed on untreated control plants.
The following table presents the activity of typical compounds of the present invention when evaluated in these experiments. The effectiveness of the test compounds in controlling disease was determined by assessing the severity of disease on treated plants, then converting the severity to percent control based on the level of disease on untreated, inoculated plants.
TABLE 4: Activity of compounds as fungicides. Data are the level at which the given disease was controlled when the given compound was applied to the foliage of the plant at 200 ppm. In a few cases (noted in the table) the compound was applied to the plant at 100, 75 or 8.3 ppm. The plant was inoculated with the fungus one day after treatment. In a few cases (noted in the table) the plant was inoculated with the fungus two days before treatment.

[2] = Pyricularia oryzae, in Oryza sativa, 24 h

| SMILES | pest or weed control at 200 ppm [1] [%] | pest or weed control at 200 ppm (Leptosphaeria nodorum) [%] | pest or weed control at 200 ppm (Magnaporthe grisea; [2]) [%] | pest or weed control at 200 ppm (Colletotricum lagenarium) [%] | pest or weed control at 200 ppm (Phytophthora infestans) [%] | pest or weed control at 75 ppm (Septoria tritici; 24 h, one-day protectant test) [%] | pest or weed control at 200 ppm (Erysiphe cichoracaerum) [%] | pest or weed control at 200 ppm (Cochliobolus sativus) [%] | pest or weed control at 200 ppm (Septoria tritici; 24 h, one-day protectant test) [%] | pest or weed control at 100 ppm (Septoria tritici; 24 h, one-day protectant test) [%] | PUCCRT percent control of disease [1] | pest or weed control at 100 ppm (Leptosphaeria nodorum; 48 h, 100 ppm (footnote a), two-day curative test (footnote b)) [%] | PYRIOR percent control of disease (Magnaporthe grisea; 200 ppm on foliage, rice, one-day protectant test) | COLLLA percent control of disease (Colletotricum lagenarium) | PHYTIN percent control of disease (Phytophthora infestans; 200 ppm on foliage, tomato, one-day protectant test) | pest or weed control at 100 ppm (Septoria tritici; 48 h, two-day curative test (footnote b)) [%] | ERYSCI percent control of disease (Erysiphe cichoracaerum) | pest or weed control at 8.3 ppm (Magnaporthe grisea; Pyricularia oryzae, in Oryza sativa, 24 h, read-out: PYRIOR percent control of disease, 8.3 ppm (footnote c), rice, one-day protectant test) [%] |
| --- | --- | --- | --- | --- | --- | --- | --- | --- | --- | --- | --- | --- | --- | --- | --- | --- | --- | --- |
| CC(=O)COc1ccc(CCNc2ncnc3scc(Cl)c23)cc1 [Compound 6a] | 80 to 100 | 50 to 79 | 80 to 100 | 50 to 79 | 80 to 100 | 0 to 49 | 0 to 49 | – | – | – | – | – | – | – | – | – | – | – |
| CC(Nc1ncnc2scc(Cl)c12)c1cnc(OCC(F)(F)F)nc1 (stereo not drawn) [Compound 54] | 80 to 100 | 50 to 79 | 80 to 100 | 0 to 49 | 80 to 100 | – | – | 0 to 49 | 50 to 79 | – | – | – | – | – | – | – | – | – |
| COc1ncc(C(C)Nc2ncnc3scc(Cl)c23)cn1 (stereo not drawn) [Compound 55] | 80 to 100 | 50 to 79 | 50 to 79 | 0 to 49 | 80 to 100 | – | – | 0 to 49 | 80 to 100 | – | – | – | – | – | – | – | – | – |
| COc1ccc(C(C)Nc2ncnc3sc(Br)cc23)cc1 (stereo not drawn) [Compound 48, (6-Bromothieno[2,3-d]pyrimidin-4-yl)-[1-(4-methoxyphenyl)ethyl]amine] | 0 to 49 | 0 to 49 | 0 to 49 | 0 to 49 | 0 to 49 | – | 0 to 49 | 80 to 100 | – | – | – | – | – | – | – | – | – | – |
| CCOC(=O)c1csc2ncnc(NC(C)c3ccc(OC)cc3)c12 (stereo not drawn) [Compound 50, 5-Carboethoxy-N-[1-(4-methoxyphenyl)ethyl]thieno[2,3-d]pyrimidin-4-amine] | 0 to 49 | 0 to 49 | 0 to 49 | 0 to 49 | 0 to 49 | – | – | 50 to 79 | – | – | – | – | – | – | – | – | – | – |
| FC(F)(F)COc1ccc(CCNc2ncnc3scc(Cl)c23)cn1 [Compound 5a] | 80 to 100 | 80 to 100 | 80 to 100 | 50 to 79 | 80 to 100 | – | 80 to 100 | – | – | 80 to 100 | – | – | – | – | – | – | – | – |
| COc1ccc(C(C)Nc2ncnc3sc([N+](=O)[O-])cc23)cc1 (stereo not drawn) [Compound 47, [1-(4-Methoxyphenyl)ethyl]-(6-nitrothieno[2,3-d]pyrimidin-4-yl)amine] | 80 to 100 | 50 to 79 | 80 to 100 | 0 to 49 | 0 to 49 | – | 0 to 49 | 0 to 49 | – | – | – | – | – | – | – | – | – | – |
| OCC(Nc1ncnc2scc(Cl)c12)c1ccccc1 (stereo not drawn) [Compound 69] | – | – | – | – | – | – | – | – | – | – | * (* is 0-49 percent control of disease) | 50 to 79 | * (* is 0-49 percent control of disease) | * (* is 0-49 percent control of disease) | * (* is 0-49 percent control of disease) | 50 to 79 | * (* is 0-49 percent control of disease) | – |
| CC(Nc1ncnc2scc(Cl)c12)c1ccc(F)nc1 (stereo not drawn) [Compound 40] | 80 to 100 | 50 to 79 | – | – | – | – | – | 50 to 79 | – | – | – | – | – | – | – | – | – | – |
| COc1ccc(OCC(C)Nc2ncnc3scc(Cl)c23)cn1 (stereo not drawn) [Compound 53] | 80 to 100 | 0 to 49 | 50 to 79 | 0 to 49 | 0 to 49 | – | – | 50 to 79 | 50 to 79 | – | – | – | – | – | – | – | – | – |
| Clc1csc2ncnc(N3CCCC3c3cccnc3)c12 (stereo not drawn) [Compound 56] | 50 to 79 | 0 to 49 | 0 to 49 | 0 to 49 | 0 to 49 | – | 0 to 49 | 0 to 49 | – | – | – | – | – | – | – | – | – | – |
| CCOC(=O)c1sc2ncnc(NC(C)c3ccc(OC)cc3)c2c1OC (stereo not drawn) [Compound 51, 5-Methoxy-4-[1-(4-methoxyphenyl)ethylamino]thieno[2,3-d]pyrimidine-6-carboxylic Acid Ethyl Ester] | 0 to 49 | 0 to 49 | – | – | – | – | – | 0 to 49 | 0 to 49 | – | – | – | – | – | – | – | – | – |
| COc1ccc(C(C)Nc2ncnc3scc(C#N)c23)cc1 (stereo not drawn) [Compound 49, 5-Cyano-N-[1-(4-methoxyphenyl)ethyl]thieno[2,3-d]pyrimidin-4-amine] | 80 to 100 | 0 to 49 | 80 to 100 | 0 to 49 | 0 to 49 | – | – | 50 to 79 | – | – | – | – | – | – | – | – | – | – |
| CCOc1csc2ncnc(N[C@@H](C)c3ccc(OC)cc3)c12 [Compound 43] | 50 to 79 | 0 to 49 | 50 to 79 | 0 to 49 | 0 to 49 | – | – | 0 to 49 | – | – | – | – | – | – | – | – | – | – |
| CCOc1csc2ncnc(NC(C)c3ccc(OC)nc3)c12 (stereo not drawn) [Compound 46] | 80 to 100 | 50 to 79 | 80 to 100 | 0 to 49 | 0 to 49 | – | 50 to 79 | 0 to 49 | – | – | – | – | – | – | – | – | – | – |
| CC(C)(C)OC(=O)Nc1ccc(CCNc2ncnc3scc(Cl)c23)cc1 [Compound 10a, {4-[2-(5-chlorothieno[2,3-d]pyrimidin-4-ylamino)ethyl]phenyl}carbamic Acid t-butyl Ester] | 0 to 49 | 0 to 49 | – | 0 to 49 | – | 80 to 100 | 0 to 49 | – | – | – | – | – | – | – | – | – | – | 80 to 100 |
| O=C(Oc1ccc(CCNc2ncnc3scc(Cl)c23)cc1)C1(F)C(F)(F)C(F)(F)C(F)(F)C(F)(F)C1(F)F [Compound 9a, 1,2,2,3,3,4,4,5,5,6,6-undecafluoroclohexanecarboxylic Acid 4-[2-(5-chlorothieno[2,3-d]pyrimidin-4-ylamino)ethyl]phenyl Ester] | 80 to 100 | 0 to 49 | 80 to 100 | 0 to 49 | 0 to 49 | 80 to 100 | 0 to 49 | – | – | – | – | – | – | – | – | – | – | – |
| CC(Nc1ncnc2scc(Cl)c12)c1ccc(C(F)(F)F)cc1 (stereo not drawn) [Compound 26] | 80 to 100 | 80 to 100 | 80 to 100 | 0 to 49 | 0 to 49 | – | 80 to 100 | – | – | – | – | – | – | – | – | – | – | – |
| CC(Nc1ncnc2scc(Cl)c12)c1cccc2ccccc12 (stereo not drawn) [Compound 3a] | 80 to 100 | 0 to 49 | 80 to 100 | 0 to 49 | 0 to 49 | – | 80 to 100 | – | – | – | – | – | – | – | – | – | – | – |
